One test deals with human AT2R fused to Cb23 (Homo sapiens, UniProt P50052). Briefly: Radioligand binding assay, displacement of 125I-[Sar1, Ile8]-Angiotensin II, hAT2R Cb23. As to conditions: displacement of 125I-[Sar1, Ile8]-Angiotensin II, human AT2R fused to Cb23, HEK-293 cell membrane preparations; read-out: Binding affinity on hAT2R_Cb23 IC50. Put shortly: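 Membranes from HEK-293 cells expressing human AT2R fused to Cb23 were incubated with 0.05 nM 125I-[Sar1, Ile8]-Angiotensin II in 100 μL buffer (50 mM Tris, 5 mM MgCl2, 1 mM EDTA, 0.1% BSA, pH 7.4) for one hour at 25° C. Ligands were tested as eight-point dose-response curves in duplicate, with C21 and Angiotensin II as references.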

The target of a further test is human AT1R (Homo sapiens (Human), UniProt P30556). Briefly: Counterscreen radioligand binding assay, displacement of 125I-[Sar1, Ile8]-Angiotensin II, hAT1R WT. As to conditions: for inhibition at 1 µM / inhibition at 10 µM: 125I-[Sar1, Ile8]-Ang II, semi-quantitative score; for inhibition at 1 µM: compound at 1 μM, read-out: % Displaced radioligand at 1 μM; for inhibition at 10 µM: compound at 10 μM, read-out: % Displaced radioligand at 10 μM; for IC50: HEK-293 cell membranes, read-out: Binding affinity On hAT1R IC50. The gist of the method:
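Membranes from HEK-293 cells expressing human AT1R were incubated for one hour at 25° C, pH 7.4, with 0.05 nM radiolabelled [Sar1, Ile8]-Ang II and test ligand. Bound radioactivity was collected on PEI-soaked filters, with 10 μM unlabelled [Sar1]-Ang II defining non-specific binding. Results are percent displacement at 1 μM and […], or IC50 from eight-point duplicate curves.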

SMILES strings stand for the structures. Bounds are passed on as bounds.

Sequence of human AT2R fused to Cb23 (P50052 whole entry, looked up, the tested form may be a part): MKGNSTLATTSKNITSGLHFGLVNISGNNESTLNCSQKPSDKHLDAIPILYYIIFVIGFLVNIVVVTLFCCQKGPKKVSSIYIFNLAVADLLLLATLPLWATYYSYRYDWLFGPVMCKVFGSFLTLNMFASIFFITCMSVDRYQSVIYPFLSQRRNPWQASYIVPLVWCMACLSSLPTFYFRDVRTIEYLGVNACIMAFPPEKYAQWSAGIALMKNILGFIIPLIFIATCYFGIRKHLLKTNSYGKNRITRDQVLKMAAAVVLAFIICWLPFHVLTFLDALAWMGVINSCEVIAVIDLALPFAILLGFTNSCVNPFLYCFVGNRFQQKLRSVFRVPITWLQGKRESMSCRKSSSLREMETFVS
Sequence of human AT1R (P30556 whole entry): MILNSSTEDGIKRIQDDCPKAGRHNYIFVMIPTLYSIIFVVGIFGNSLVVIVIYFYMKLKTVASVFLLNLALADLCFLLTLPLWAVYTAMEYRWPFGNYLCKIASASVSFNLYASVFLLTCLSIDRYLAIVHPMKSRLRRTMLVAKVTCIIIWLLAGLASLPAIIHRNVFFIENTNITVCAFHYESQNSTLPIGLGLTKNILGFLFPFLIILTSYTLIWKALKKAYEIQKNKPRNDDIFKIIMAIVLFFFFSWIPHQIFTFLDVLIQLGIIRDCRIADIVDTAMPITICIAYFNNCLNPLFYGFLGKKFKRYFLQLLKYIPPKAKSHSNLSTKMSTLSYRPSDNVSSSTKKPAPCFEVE

In the case of `CC(C)Cc1cc(N2CCN(Cc3cccnn3)CC2)c(-c2nn[nH]n2)cc1F` [Compound A-163, 3-[[4-[4-fluoro-5-isobutyl-2-(2H-tetrazol-5-yl)phen-yl]piperazin-1-yl]-methyl]pyridazine], the half-inhibitory concentration (IC50) on human AT2R fused to Cb23 turned out to be 3.32 µM. Besides, at human AT1R, the inhibition at 1 µM is under 30% and the inhibition at 10 µM was under 30%.

For `CC(C)Cc1cc(F)c(-c2nn[nH]n2)c(N2CC3CN(Cc4cccnn4)CC3C2)c1` (stereo not drawn) [Compound A-233, 5-[3-fluoro-5-isobutyl-2-(2H-tetrazol-5-yl)phenyl]-2-(pyridazin-3-ylmethyl)-1,3,3a,4,6,6a-hexahydropyrrolo[3,4-c]pyrrole], the IC50 at human AT2R fused to Cb23 is 1.31 µM. Also, on human AT1R, the inhibition at 1 µM is under 30% and the inhibition at 10 µM was under 30%.

Turning to `CCS(=O)(=O)NC(=O)c1ccc(C(C)C)cc1N1CCN(Cc2nc3ccccc3s2)CC1` [Compound A-34, 2-[4-(1,3-benzo-thiazol-2-ylmethyl)-piperazin-1-yl]-N-ethylsulfonyl-4-iso-propyl-benzamide], at human AT2R fused to Cb23, the IC50 was found to be 0.484 µM. Also, at human AT1R, the inhibition at 1 µM is under 30% and the inhibition at 10 µM is under 30%.

On to `CC(C)c1ccc(-c2nn[nH]n2)c(N2CCN(Cc3nc4ccccc4s3)CC2)c1` [Compound A-46], for which the half-inhibitory concentration (IC50) on human AT2R fused to Cb23 stood at 1.79 µM. Moreover, on human AT1R, the inhibition at 1 µM is under 30% and the inhibition at 10 µM was under 30%.

With `CCS(=O)(=O)NC(=O)c1ccc(OC(C)C)cc1N1CCN(Cc2nc3ccccc3n2C)CC1` [Compound A-14, N-ethylsulfonyl-4-isopropoxy-2-[4-[(1-methylbenzimidazol-2-yl)methyl]piperazin-1-yl]benzamide], at human AT2R fused to Cb23, the IC50 stood at 4.82 µM. Further, at human AT1R, the inhibition at 1 µM is under 30% and the inhibition at 10 µM is under 30%.

As for `CCS(=O)(=O)NC(=O)c1ccc(OC)cc1N1CCN(Cc2nc3ccccc3s2)CC1` [Compound A-37, 2-[4-(1,3-benzothiazol-2-ylmethyl)piperazin-1-yl]-N-ethylsulfonyl-4-methoxy-benzamide], at human AT2R fused to Cb23, the 50% inhibitory concentration (IC50) stood at 6.58 µM. Also, at human AT1R, the inhibition at 1 µM is under 30% and the inhibition at 10 µM was under 30%.

Consider `CC(C)Cc1ccc(-c2nn[nH]n2)c(N2CCN(Cc3nc4ccccc4c(=O)n3C)CC2)c1` [Compound A-78, 2-[[4-[5-isobutyl-2-(2H-tetrazol-5-yl)-phenyl]piperazin-1-yl]methyl]-3-methyl-quinazolin-4-one], for which, on human AT2R fused to Cb23, the half-inhibitory concentration (IC50) was found to be 1.5 µM. For the same molecule, at human AT1R, the inhibition at 1 µM was under 30%, the inhibition at 10 µM is 30 to 50% and the IC50 came to 12.2 µM.

`Cc1nc(CN2CCN(c3cc(CC(C)C)ccc3-c3nn[nH]n3)CC2)cs1` [Compound A-87]: on human AT2R fused to Cb23, the IC50 was 3.81 µM. On human AT1R, the inhibition at 1 µM was under 30% and the inhibition at 10 µM is under 30%.

As to `CC(C)Cc1ccc(-c2nn[nH]n2)c(N2CCN(Cc3ncco3)CC2)c1` [Compound A-98, 2-[[4-[5-isobutyl-2-(2H-tetrazol-5-yl)-phenyl]piperazin-1-yl]methyl]oxazole], the IC50 on human AT2R fused to Cb23 was found to be 5.69 µM. On human AT1R, the inhibition at 1 µM is under 30% and the inhibition at 10 µM was under 30%.

`COc1ccc(CN2CCN(c3cc(CC(C)C)cc(F)c3-c3nn[nH]n3)CC2)nc1` [Compound A-194, 1-[3-fluoro-5-isobutyl-2-(2H-tetrazol-5-yl)phenyl]-4-[(5-methoxy-2-pyridyl)methyl]piperazine]: the IC50 at human AT2R fused to Cb23 was 0.737 µM. Further, at human AT1R, the inhibition at 1 µM was under 30% and the inhibition at 10 µM was under 30%.

In the case of `CCc1ccc(-c2nn[nH]n2)c(N2CCN(Cc3nc4ccccc4s3)CC2)c1` [Compound A-45, 2-[[4-[5-ethyl-2-(2H-tetrazol-5-yl)-phenyl]piperazin-1-yl]methyl]-1,3-benzothiazole], the half-inhibitory concentration (IC50) at human AT2R fused to Cb23 turned out to be 2.54 µM. For the same molecule, at human AT1R, the inhibition at 1 µM is under 30%, the inhibition at 10 µM is under 30% and the IC50 is 30 µM.

For `Cn1c(CN2CCN(c3cc(C(F)(F)F)ccc3-c3nn[nH]n3)CC2)nc2ccccc21` [Compound A-17, 1-methyl-2-[[4-[2-(2H-tetrazol-5-yl)-5-(trifluoromethyl)-phenyl]piperazin-1-yl]methyl]benzimid-azole], the IC50 at human AT2R fused to Cb23 stood at 14.3 µM. Also, on human AT1R, the inhibition at 1 µM is under 30% and the inhibition at 10 µM was under 30%.

Regarding `CCc1cc(OC(C)C)cc(N2CCN(Cc3cccnn3)CC2)c1-c1nn[nH]n1` [Compound A-159, 3-[[4-[3-ethyl-5-isopropoxy-2-(2H-tetrazol-5-yl)phen-yl]piperazin-1-yl]-methyl]pyridazine], at human AT2R fused to Cb23, the IC50 amounted to 3.08 µM. Also, at human AT1R, the inhibition at 1 µM was under 30% and the inhibition at 10 µM is under 30%.

As for `CC(C)Cc1ccc(-c2nn[nH]n2)c(N2CCN(Cc3nncn3C)CC2)c1` [Compound A-94, 1-[5-isobutyl-2-(2H-tetrazol-5-yl)phenyl]-4-[(4-methyl-1,2,4-triazol-3-yl)methyl]piperazine], the IC50 at human AT2R fused to Cb23 was 4.77 µM. At human AT1R, the inhibition at 1 µM was under 30%, the inhibition at 10 µM lay within 30 to 50% and the IC50 was 14.2 µM.

For `CCCc1ccc(-c2nn[nH]n2)c(N2CCN(Cc3nc4ccccc4n3C)CC2)c1` [Compound A-19, 1-methyl-2-[[4-[5-propyl-2-(2H-tetrazol-5-yl)phen-yl]piperazin-1-yl]-methyl]benzimid-azole], the half-maximal inhibitory concentration (IC50) on human AT2R fused to Cb23 was 1.17 µM. Also, at human AT1R, the inhibition at 1 µM was under 30%, the inhibition at 10 µM is under 30% and the IC50 was determined as 47.4 µM.

For `CCOC(=O)NS(=O)(=O)c1ccc(C(F)(F)F)cc1N1CCN(Cc2nc3ccccc3n2C)CC1` [Compound A-08, ethyl N-[2-[4-[(1-methylbenzimidazol-2-yl)methyl]piperazin-1-yl]-4-(trifluoromethyl)phenyl]sulfonylcarbamate], at human AT2R fused to Cb23, the 50% inhibitory concentration (IC50) stood at 6.82 µM. Besides, at human AT1R, the inhibition at 1 µM is under 30%, the inhibition at 10 µM is under 30% and the IC50 is 92.1 µM.

For `CC(C)Cc1cc(F)c(-c2nn[nH]n2)c(N2CCN(Cc3cc(Cl)ccn3)CC2)c1` [Compound A-191, 1-[(4-chloro-2-pyridyl)methyl]-4-[3-fluoro-5-isobutyl-2-(2H-tetrazol-5-yl)phenyl]piperazine], the concentration for half-maximal inhibition (IC50) on human AT2R fused to Cb23 was determined as 0.0531 µM. Moreover, at human AT1R, the inhibition at 1 µM is under 30% and the inhibition at 10 µM was under 30%.

`CC(C)Cc1cc(F)c(-c2nn[nH]n2)c(N2CC3CC2CN3Cc2cccnn2)c1` (stereo not drawn) [Compound A-189, 2-[3-fluoro-5-isobutyl-2-(2H-tetrazol-5-yl)phen-yl]-5-(pyridazin-3-ylmethyl)-2,5-di-azabicyclo[2.2.1]-heptane]: on human AT2R fused to Cb23, the 50% inhibitory concentration (IC50) stood at 2.65 µM. On human AT1R, the inhibition at 1 µM was under 30% and the inhibition at 10 µM is under 30%.

As to `CCc1cc(CC(C)C)cc(N2CCN(Cc3nc4ccccc4s3)CC2)c1-c1nn[nH]n1` [Compound A-136, 2-[[4-[3-ethyl-5-isobutyl-2-(2H-tetrazol-5-yl)phen-yl]piperazin-1-yl]-methyl]-1,3-benzo-thiazole], at human AT2R fused to Cb23, the half-inhibitory concentration (IC50) turned out to be 0.0121 µM. Moreover, at human AT1R, the inhibition at 1 µM was under 30% and the inhibition at 10 µM is under 30%.

Take `Cc1cccc2nc(CN3CCN(c4cc(CC(C)C)ccc4-c4nn[nH]n4)CC3)cc(=O)n12` [Compound A-73, 2-[[4-[5-isobutyl-2-(2H-tetrazol-5-yl)-phenyl]piperazin-1-yl]methyl]-6-methyl-pyrido[1,2-a]pyrimidin-4-one-]: the IC50 at human AT2R fused to Cb23 came to 4.3 µM. For the same molecule, at human AT1R, the inhibition at 1 µM is under 30% and the inhibition at 10 µM is under 30%.

`CC(C)Cc1cc(F)c(-c2nn[nH]n2)c(N2C[C@@H](C)N(Cc3cccnn3)[C@@H](C)C2)c1` [Compound A-186, 3-[[(2S,6R)-4-[3-fluoro-5-isobutyl-2-(2H-tetrazol-5-yl)-phenyl]-2,6-dimeth-yl-piperazin-1-yl]-methyl]pyridazine]: the 50% inhibitory concentration (IC50) on human AT2R fused to Cb23 worked out at 0.0183 µM. Besides, at human AT1R, the inhibition at 1 µM is under 30% and the inhibition at 10 µM was under 30%.

On to `CC(C)COc1ccc(-c2nn[nH]n2)c(N2CCN(Cc3nc4ccccc4s3)CC2)c1` [Compound A-53, 2-[[4-[5-isobutoxy-2-(2H-tetrazol-5-yl)phenyl]piperazin-1-yl]methyl]-1,3-benzothiazole], for which the IC50 on human AT2R fused to Cb23 is 7.6 µM. On human AT1R, the inhibition at 1 µM is under 30%, the inhibition at 10 µM was under 30% and the IC50 came out at 45.6 µM.

With `CCS(=O)(=O)NC(=O)c1ccc(OCC(C)C)cc1N1CCN(Cc2nc3ccccc3s2)CC1` [Compound A-43, 2-[4-(1,3-benzothiazol-2-ylmethyl)piperazin-1-yl]-N-ethylsulfonyl-4-isobutoxy-benzamide], the IC50 on human AT2R fused to Cb23 amounted to 4.38 µM. At human AT1R, the inhibition at 1 µM was under 30% and the inhibition at 10 µM lay within 30 to 50%.

With `CC(C)Cc1ccc(-c2nn[nH]n2)c(N2CCN(Cc3cnccn3)CC2)c1` [Compound A-93, 2-[[4-[5-isobutyl-2-(2H-tetrazol-5-yl)-phenyl]piperazin-1-yl]methyl]pyr-azine], the IC50 on human AT2R fused to Cb23 was determined as 6.98 µM. On human AT1R, the inhibition at 1 µM was under 30% and the inhibition at 10 µM was under 30%.

Values taken from patent US20240368133A1, “Compounds for the Treatment of Pain, in Particular, Neuropathic Pain, and/or Other Diseases or Disorders that are Associated with AT2R and/or AT2R Mediated Signaling” (Confo Therapeutics N.V., priority 2021, published 2024).
